# Laboratory results reported in PubChem BioAssay AID330 (DTP/NCI, 2004).
# Inconclusive results and toxic doses are left out.
# Tested on: P388 leukemia ip, CD2F1 mice, survival T/C
# Assay: NCI In Vivo Anticancer Drug Screen. Data for tumor model P388 Leukemia (intraperitoneal) in CD2F1 (CDF1) mice
# Details: endpoint: median survival time, higher = longer survival
# Summary of the method: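 Mice carrying the transplanted tumor received test compound or vehicle. Survival was recorded in each group, and the value is the treated-group measurement divided by that of the vehicle-treated control group.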
# [1] = dose: 50.0 mg/kg/injection, schedule: Q01DX005 (ip), vehicle: saline with Tween-80
# [2] = dose: 100.0 mg/kg/injection, schedule: Q01DX005 (ip), vehicle: saline with Tween-80
# [3] = dose: 200.0 mg/kg/injection, schedule: Q01DX005 (ip), vehicle: saline with Tween-80
# [4] = dose: 60.0 mg/kg/injection, schedule: Q01DX005 (ip), vehicle: saline
# [5] = dose: 50.0 mg/kg/injection, schedule: Q01DX009 (ip), vehicle: Klucel (hydroxypropylcellulose) (HPC)
# [6] = dose: 100.0 mg/kg/injection, schedule: Q01DX009 (ip), vehicle: Klucel (hydroxypropylcellulose) (HPC)
# [7] = dose: 200.0 mg/kg/injection, schedule: Q01DX009 (ip), vehicle: Klucel (hydroxypropylcellulose) (HPC)
# [8] = dose: 100.0 mg/kg/injection, schedule: Q01DX009 (ip), vehicle: saline
# [9] = dose: 200.0 mg/kg/injection, schedule: Q01DX009 (ip), vehicle: saline
# [10] = dose: 50.0 mg/kg/injection, schedule: Q01DX009 (ip), vehicle: saline with Tween-80
# [11] = dose: 100.0 mg/kg/injection, schedule: Q01DX009 (ip), vehicle: saline with Tween-80
# [12] = dose: 200.0 mg/kg/injection, schedule: Q01DX009 (ip), vehicle: saline with Tween-80
# [13] = dose: 100.0 mg/kg/injection, schedule: Q04DX003 (ip), vehicle: saline
# [14] = dose: 200.0 mg/kg/injection, schedule: Q04DX003 (ip), vehicle: saline
# [15] = dose: 25.0 mg/kg/injection, schedule: Q01DX009 (ip), vehicle: saline with Tween-80
smiles,measurement,setting,value
COc1cc([C@@H]2c3cc4c(c(O)c3C[C@H]3COC(=O)[C@@H]32)OCO4)cc(OC)c1OC,T/C,"dose: 0.12 mg/kg/injection, schedule: Q01DX009 (ip), vehicle: saline",113 % of control
same,T/C,"dose: 0.12 mg/kg/injection, schedule: Q01DX009 (ip), vehicle: suspension in saline",111 % of control
same,T/C,"dose: 0.25 mg/kg/injection, schedule: Q01DX009 (ip), vehicle: saline",119 % of control
same,T/C,"dose: 0.25 mg/kg/injection, schedule: Q01DX009 (ip), vehicle: suspension in saline",119 % of control
same,T/C,"dose: 0.5 mg/kg/injection, schedule: Q01DX009 (ip), vehicle: saline",124 % of control
CO/N=C1/C=CC(Cl)=C/C1=C(\c1ccccc1Cl)C(C#N)c1ccccc1Cl (configuration not stated),T/C,"dose: 100.0 mg/kg/injection, schedule: Q01DX001 (ip), vehicle: saline with Tween-80",94 % of control
same,T/C,"dose: 200.0 mg/kg/injection, schedule: Q01DX001 (ip), vehicle: saline with Tween-80",102 % of control
same,T/C,"dose: 400.0 mg/kg/injection, schedule: Q01DX001 (ip), vehicle: saline with Tween-80",92 % of control
CC(C)=CCC/C(C)=C/CSC#N,T/C,"dose: 25.0 mg/kg/injection, schedule: Q01DX005 (ip), vehicle: saline with Tween-80",102 % of control
same,T/C,[1],105 % of control
same,T/C,[2],111 % of control
same,T/C,[3],104 % of control
CS(=N)(=O)CCC(N)C(=O)O (configuration not stated) (tested in a mixture with another compound),T/C,"dose: 25.0 mg/kg/injection, schedule: Q01DX001 (ip), vehicle: saline",100 % of control
same,T/C,"dose: 50.0 mg/kg/injection, schedule: Q01DX001 (ip), vehicle: saline",105 % of control
same,T/C,"dose: 100.0 mg/kg/injection, schedule: Q01DX001 (ip), vehicle: saline",105 % of control
CC(C)Cc1cc(-c2cc(CC(C)C)nc(N)n2)nc(N)n1,T/C,[4],100 % of control
same,T/C,"dose: 120.0 mg/kg/injection, schedule: Q01DX005 (ip), vehicle: saline",90 % of control
Cc1nn(C(=O)c2ccncc2)c(C)c1N=Nc1cccc(Cl)c1,T/C,[5],99 % of control
same,T/C,[6],100 % of control
same,T/C,[7],98 % of control
CCCNC(=S)Nc1ncco1,T/C,"dose: 50.0 mg/kg/injection, schedule: Q01DX009 (ip), vehicle: saline",100 % of control
same,T/C,[8],96 % of control
same,T/C,[9],111 % of control
CCCC(O)(CCC)/C(C)=N/NC(N)=O,T/C,[10],95 % of control
same,T/C,[11],97 % of control
same,T/C,[12],92 % of control
CCC12C[N+]3([O-])CCc4c([nH]c5ccccc45)C(C(=O)OC)(c4cc5c(cc4OC)N(C)C4C(O)(C(=O)OC)C(OC(C)=O)C6(CC)C=CCN7CCC54C76)CC(C3)C1O2 (configuration not stated),T/C,"dose: 2.0 mg/kg/injection, schedule: Q01DX001 (ip), vehicle: water",102 % of control
same,T/C,"dose: 8.0 mg/kg/injection, schedule: Q01DX001 (ip), vehicle: distilled water + Tween-80",161 % of control
same,T/C,"dose: 8.0 mg/kg/injection, schedule: Q01DX001 (ip), vehicle: water",122 % of control
same,T/C,"dose: 16.0 mg/kg/injection, schedule: Q01DX001 (ip), vehicle: distilled water + Tween-80",193 % of control
same,T/C,"dose: 32.0 mg/kg/injection, schedule: Q01DX001 (ip), vehicle: water",171 % of control
same,T/C,"dose: 64.0 mg/kg/injection, schedule: Q01DX001 (ip), vehicle: water",190 % of control
CC(C)=NNC1=NC(C)(C)P(=O)(NNc2ncccn2)S1 (configuration not stated),T/C,"dose: 15.0 mg/kg/injection, schedule: Q01DX005 (ip), vehicle: Klucel (hydroxypropylcellulose) (HPC)",107 % of control
same,T/C,"dose: 30.0 mg/kg/injection, schedule: Q01DX005 (ip), vehicle: Klucel (hydroxypropylcellulose) (HPC)",105 % of control
same,T/C,"dose: 60.0 mg/kg/injection, schedule: Q01DX005 (ip), vehicle: Klucel (hydroxypropylcellulose) (HPC)",93 % of control
same,T/C,[4],98 % of control
CCCCCCC1(/C=C\c2ccc(Cl)c(Cl)c2)OCCO1,T/C,[5],93 % of control
same,T/C,[6],108 % of control
same,T/C,[7],100 % of control
COC(C)(C)O/N=C(\C[n+]1ccccc1)c1ccccc1,T/C,"dose: 3.13 mg/kg/injection, schedule: Q01DX009 (ip), vehicle: water",100 % of control
same,T/C,"dose: 6.25 mg/kg/injection, schedule: Q01DX009 (ip), vehicle: water",104 % of control
same,T/C,"dose: 12.5 mg/kg/injection, schedule: Q01DX009 (ip), vehicle: water",114 % of control
same,T/C,"dose: 25.0 mg/kg/injection, schedule: Q01DX009 (ip), vehicle: water",105 % of control
O=C(CCBr)N1CCN(C(=O)CCBr)CC1,T/C,"dose: 2.5 mg/kg/injection, schedule: Q01DX009 (ip), vehicle: saline",100 % of control
same,T/C,"dose: 5.0 mg/kg/injection, schedule: Q01DX009 (ip), vehicle: saline",104 % of control
same,T/C,"dose: 5.0 mg/kg/injection, schedule: Q01DX010 (ip), vehicle: Klucel (hydroxypropylcellulose) (HPC)",108 % of control
same,T/C,"dose: 10.0 mg/kg/injection, schedule: Q01DX009 (ip), vehicle: saline",112 % of control
same,T/C,"dose: 10.0 mg/kg/injection, schedule: Q01DX010 (ip), vehicle: Klucel (hydroxypropylcellulose) (HPC)",120 % of control
same,T/C,"dose: 20.0 mg/kg/injection, schedule: Q01DX009 (ip), vehicle: saline",112 % of control
same,T/C,"dose: 40.0 mg/kg/injection, schedule: Q01DX009 (ip), vehicle: saline",169 % of control
same,T/C,"dose: 40.0 mg/kg/injection, schedule: Q01DX010 (ip), vehicle: Klucel (hydroxypropylcellulose) (HPC)",171 % of control
same,T/C,"dose: 80.0 mg/kg/injection, schedule: Q01DX009 (ip), vehicle: saline",110 % of control
same,T/C,"dose: 80.0 mg/kg/injection, schedule: Q01DX010 (ip), vehicle: Klucel (hydroxypropylcellulose) (HPC)",91 % of control
C/C(N=NC(=S)N1CC(C)OC(C)C1)=C1\C=CC=CN1O (configuration not stated),T/C,[1],111 % of control
same,T/C,[2],104 % of control
same,T/C,[3],106 % of control
Cc1nc2scc(-c3ccc(Cl)cc3)n2c(=O)c1CN1CCCCC1,T/C,"dose: 50.0 mg/kg/injection, schedule: Q04DX002 (ip), vehicle: Klucel (hydroxypropylcellulose) (HPC)",97 % of control
same,T/C,"dose: 100.0 mg/kg/injection, schedule: Q04DX002 (ip), vehicle: Klucel (hydroxypropylcellulose) (HPC)",95 % of control
same,T/C,"dose: 200.0 mg/kg/injection, schedule: Q04DX002 (ip), vehicle: Klucel (hydroxypropylcellulose) (HPC)",97 % of control
CCn1ncc2c(=O)c(C(=O)c3ccccc3)c[nH]c21,T/C,[1],99 % of control
same,T/C,[2],97 % of control
same,T/C,[3],104 % of control
COC(=O)C(Br)c1cccc(OC)c1 (configuration not stated),T/C,"dose: 132.0 mg/kg/injection, schedule: Q04DX003 (ip), vehicle: saline with Tween-80",100 % of control
same,T/C,"dose: 178.0 mg/kg/injection, schedule: Q01DX009 (ip), vehicle: saline with Tween-80",100 % of control
same,T/C,"dose: 200.0 mg/kg/injection, schedule: Q04DX003 (ip), vehicle: saline with Tween-80",100 % of control
same,T/C,"dose: 266.0 mg/kg/injection, schedule: Q01DX009 (ip), vehicle: saline with Tween-80",100 % of control
same,T/C,"dose: 300.0 mg/kg/injection, schedule: Q04DX003 (ip), vehicle: saline with Tween-80",100 % of control
same,T/C,"dose: 400.0 mg/kg/injection, schedule: Q01DX009 (ip), vehicle: saline with Tween-80",100 % of control
CN1CCC(OC(=O)c2ccco2)CC1,T/C,"dose: 50.0 mg/kg/injection, schedule: Q04DX003 (ip), vehicle: saline",101 % of control
same,T/C,[13],100 % of control
same,T/C,[14],99 % of control
C/C(=N\Nc1cc(C)nc2ccc(C)cc12)c1cn(C)n(-c2ccccc2)c1=O,T/C,[5],97 % of control
same,T/C,[6],86 % of control
CC(=O)SCc1nc2ccccc2[nH]1,T/C,[15],107 % of control
same,T/C,[10],105 % of control
same,T/C,[11],108 % of control
O=C1c2ccccc2C(Cl)=C(Cl)C1(Cl)Cl,T/C,"dose: 12.5 mg/kg/injection, schedule: Q01DX009 (ip), vehicle: saline with Tween-80",104 % of control
same,T/C,[15],90 % of control
CC1(CO)C2CCC(CC2)C1CO (configuration not stated),T/C,[10],109 % of control
same,T/C,[11],100 % of control
same,T/C,[12],104 % of control
Oc1ccccc1C(Nc1nc2ccccc2s1)c1ccc2cccnc2c1O (configuration not stated),T/C,[8],90 % of control
same,T/C,[13],95 % of control
same,T/C,[9],100 % of control
same,T/C,[14],91 % of control
same,T/C,"dose: 400.0 mg/kg/injection, schedule: Q01DX009 (ip), vehicle: saline",90 % of control
same,T/C,"dose: 400.0 mg/kg/injection, schedule: Q04DX003 (ip), vehicle: saline",91 % of control
